Assay results taken from patent US11684598B2, “Use of cannabinoids in the treatment of epilepsy” (priority 2015, dated 2023).
Read-outs that look alike come from different tables or passages of the source.

Experiments:
[1] = test system: PTZ-induced generalised seizures; test: Acute PTZ-induced model of generalised seizure; type: in vivo, rat
Experimental: Adult male Wistar Kyoto rats were used in the acute PTZ model of seizure (>P24, 70-110 g). Animals were housed five per cage in a heat regulated room (21° C.) on a 12:12 h day/night cycle (lights on 0800) in 50% humidity and given ad libitum access to standard laboratory chow (PCD Mod C, Special Diet Services, Wiltham, UK) and water. All procedures were undertaken during white light hours.
(§1) A PTZ (Sigma-Aldrich, Poole, UK) stock solution was made in 0.9% w/v NaCl for the experimental procedure.
PTZ antagonises GABA inhibition via binding to the t-butyl-bicycl-phosphorothionate site of GABAA receptors. Moreover, this chemically-induced model can be indicative of effects against absence seizures. PTZ (90 mg/kg) was used to induce seizures in adult male Wistar rats (n=15 per group) with experiment dose randomised using a Latin square design. Animals were placed in their 6 L Perspex tanks and allowed to acclimatise to their environment for 10 min, before receiving one of the cannabinoid doses (see Table 5) in vehicle, or volume-matched dose of vehicle alone to serve as a negative control. 60 min after test compound or vehicle administration, animals were injected with PTZ (90 mg/kg, i.p.) to induce seizures and animal behaviour was recorded for 30 min.
Videos of PTZ-induced seizures were scored offline with a standard seizure severity scale appropriate for generalised seizures (Table 6).
Videos of seizure behaviour generated from the custom built observational system were scored offline according to seizure scales appropriate for PTZ model (Table 6) using Observer Video-Pro software (Noldus, Wageningen, The Netherlands). For the PTZ model of seizure, intra- and inter-observer agreements of behaviour scoring were assessed using the reliability analysis function of the observer Video-Pro software: 1 s tolerance window; Cohen's Kappa coefficient≥0.95.
Specific markers of seizure behaviour and development were assessed and compared between vehicle control and drug groups. The latency (s) to seizure onset and the percentage of animals that developed tonic-clonic seizures was noted (see Table 6). In addition, the maximum seizure severity and the percentage mortality in each group were determined for the acute PTZ model of generalised seizure.
The effect of drug on latency to seizure onset and maximum seizure severity were assessed using Krustal-Wallis with post-hoc Mann-Whitney U-tests. Drug effects on the percentage of animals that developed tonic-clonic seizures and percentage mortality were assessed using Chi-squared with post-hoc Fisher exact tests. In all cases, P≤0.05 was considered significant.

[2] = test system: D. discoideum cell growth; test: D. discoideum growth assay; type: cell-based, Dictyostelium discoideum
Experimental: Wild type (A×2) D. discoideum cells were grown in shaking culture (in HL5 medium) for two days prior to growth assays. Cells (9900 in 495 μl of media) were added to each well of a 24 well plate and 5 μl of cannabinoid in DMSO (or DMSO only) was added to each well to achieve each described concentration (1% final DMSO concentration), and cells were maintained at 22° C. Cells were counted at 72 hours, and then every 24 hours. Quadruplicate repeats were used for each concentration.

[3] = test system: D. discoideum development; test: D. discoideum development assay; type: cell-based, Dictyostelium discoideum
Experimental: Wild type (A×2) D. discoideum cells were grown in HL5 shaking culture for two days prior to development assay. Cells were washed in phosphate buffer (KK2; 20 mM Potassium phosphate buffer, pH 6.1), and 1×10^7 cells were spread onto nitrocellulose filters (Millipore, Cork). Absorbent pads (Millipore, Cork), divided into quarters, were placed in 2 ml culture dishes and soaked with 0.5 ml KK2 containing the cannabinoids at 20 μM. 1 mM Valproic acid was used as a positive control while KK2 containing 1% DMSO was used as a solvent only control. Nitrocellulose filters containing cells were quartered and place upon absorbent pads and maintained in a humid environment at 22° C. for 24 h. Fruiting body morphology was recorded using a dissection microscope and camera.

[4] = test system: D. discoideum growth upon R. planticola bacterial plates; test: Bacterial plate screen; type: cell-based, Dictyostelium discoideum; settings: CBDA 12.3 μM, CBD 16.7 μM; 4 days
Experimental: Heat killed (75° C. for 30 minutes) R. planticola was spread onto the plates and ˜50 wild-type A×2 cells were added and left to grow at 22° C. Plates were checked regularly for colonies.

[5] = Formulation analysis (decarboxylation of CBDA to CBD); type: physicochemical; settings: 2:1:17 vehicle of ethanol, cremophor and saline
Excerpt: as §1
Formulation analysis was undertaken to determine whether CBDA decarboxylated to CBD because of temperature and/or the excipients in the formulation. […] Therefore, CBDA was not modified during formulation, and a 2:1:17 ratio can be used in future investigations for this phytocannabinoid.

[6] = Toxicokinetics from toxicological studies in dogs, daily oral (gavage) administration; type: in vivo, dog; settings: dog, plasma, po, 100 mg/kg, Day 1, mean; for AUC0-t: read-out: AUC0-t; for Cmax: read-out: Cmax
Experimental: Samples were taken from the jugular vein into lithium heparin. Samples were mixed gently by hand then continuously for at least 2 minutes on automatic mixer and placed in a Kryorack until centrifugation, which was carried out at approximately 4° C. as soon as practicable. The resultant plasma was separated under low light conditions, transferred to uniquely labelled clear glass vials, placed in light proof boxes and frozen immediately at <−50° C.

[7] = female, comparative Table 11, females
[8] = male, comparative Table 10, males

Structure (SMILES) | effect on percentage mortality ([1]; 100 mg/kg CBD (P≤0.01), 100 mg/kg CBDA (P=0.0656), CBD/CBDA ratio (P=0.0656)) | effect on latency to seizure onset ([1]; 100 mg/kg CBD (P≤0.05), CBD/CBDA 9:1 (P≤0.05), CBDA 100 mg/kg (P=0.0929)) | median score for the maximum seizure severity ([1]; 100 mg/kg, PTZ 90 mg/kg i.p. 60 min after compound, scale of Table 6, n=15) | effect on incidence of tonic-clonic seizures ([1]; 100 mg/kg, P≤0.1) | effect on seizure severity vs vehicle control ([1]; CBDA 100 mg/kg, CBD/CBDA 9:1 ratio (90/10 mg/kg), P≤0.05) | IC50 ([2]; Dictyostelium discoideum, 168 h, read-out: growth inhibitory constant (IC50)) | concentration blocking growth ([2]; growth over one week) | concentration significantly inhibiting cell growth (P<0.05) ([2]; growth over one week) | effect on development (fruiting body morphology) ([3]; 20 μM, 24 h on nitrocellulose filter) | cell survival (colony number) compared to control (solvent only) [4] | conversion of CBDA to CBD during formulation [5] | AUC0-t [6, 7] | Cmax [6, 7] | AUC0-t [6, 8] | Cmax [6, 8] | effect on development (fruiting body morphology) ([3]; 1 mM, positive control, 24 h)
C=C(C)[C@@H]1CCC(C)=C[C@H]1c1c(O)cc(CCCCC)c(C(=O)O)c1O [CBDA, Cannabidiolic acid] | trend towards a significant reduction | trend towards increasing the latency to seizure onset | 3 | trend towards a reduction in tonic-clonic seizures | significant anti-convulsant effects | 300 nM | 20 µM | 0.08 µM | able to aggregate and develop to form mature fruiting bodies | No difference in colony number | not converted to CBD during formulation | 179 µg·h/mL | 38600 ng/mL | 80.5 µg·h/mL | 24900 ng/mL | 
CCCC(CCC)C(=O)O [valproic acid] |  |  |  |  |  |  |  |  |  |  |  |  |  |  |  | able to aggregate but unable to undergo development to form fruiting bodies
